From patent publication US20240197761A1, “FUCOSYLATION AND IMMUNE MODULATION IN CANCER” (H. LEE MOFFITT CANCER CENTER AND RESEARCH INSTITUTE, INC., priority 2021, published 2024) come the findings set out here.

Assay [1] relates to 4T1 mouse breast tumor. The assay can be described thus: 4T1 mouse breast tumor growth ± L-fucose supplemented water. The assay is classed as in vivo, Balb/C mice. The conditions noted are these: 500 mM L-fucose supplemented water ad libitum from 100 mm^3 (FIG. 3H). Here is the method:
To determine which immune cell populations were affected by L-fucose, another mouse melanoma model treated with control or L-fucose-supplemented water was used. […] Rather than being immunosuppressive, these cells elicit immunostimulatory activity (at this point in terms of augmenting T cell activation) (FIG. 3). […] In fact, upon reaching 100 mm^3, 4T1 mouse breast tumor-bearing Balb/C mice were provided with control or 500 mM L-fucose supplemented water ad libitum and L-fucose suppressed tumor growth by 50% (FIG. 3H). Moreover, the number of TILs increased following administration of L-fucose (FIG. 3C). We next looked at the specific populations of cells proliferating in TILs following L-fucose administration. We saw a 3.1 fold increase in MDSC cell and CD4 T cells (FIG. 3D). To verify that the increases in the TIL populations were attributed to fucosylation, we treated mice with L-fucose or 2FF (fucosylation inhibitor) and observed the change in MDSC. We observed that L-fucose increased MDSC populations, but 2FF decreased MDSC (FIG. 3E). […] This shift is depicted in FIG. 4.

Assay [2] has as its system BM-derived MDSCs. The assay can be described thus: NO production of BM-derived MDSCs (Greiss assay). Type of assay: cell-based, Balb/C mice. Particulars: 250 uM L-fuc prior, during and/or after GM/G-CSF stimulation. Here is the method: Tlhe myeloid cells, which were stimulated to imlmuno, suppressive MDSCs using GM/G-CSF, were divided into 3 treatment groups: (i) Treatment±250 uM L-fuc prior, duri ng, and after GM/G-CSF stimulation. Treatment±250 uM L-fuc during and after GM/G-CSF stimulation. (ii) Treatment±250 uM L-fuc only after GM/G-CSF stimulation. Greiss assay timepoints reier to hours after initial dose of L-fuc regardless of when cells were treated, L-fuc abrogated their ability to glenerate NO. […] We subsequently co-cultured the modulated MDSCs wilh T cells, which were then activated or not with CD3/CD28 beads and measured for IFNψ production. *. p •<0.05

For assay [3], the system named is dendritic cells. Briefly: TLR profiles of bone marrow-derived dendritic cells (RT-qPCR). Type of assay: cell-based, Balb/C mice. Particulars: 250 uM L-fucose, 96 hours, then LPS 24 hours. On the procedure:
Bone marrow was harvested from either 4-week-old (young) or 6-month-old (old) Balb/C mice. Cells were isolated and cultured in DC maturation cocktail ([…], […], ±250 uM L-fucose) for 96 hours. At 96 hours the cells were treated with 10 ug/ml LPS for 24 hours after which the cells were harvested, and the RNA was extracted. RT-qPCR was performed. Data represents fold change of indicated genes normalized to values of young mice. N=3 mice per age group.
A general note: Quantitative PCR measures a nucleic acid by following its amplification.

The test system of assay [4] is mouse melanoma tumors. The assay can be described thus: Earlier mouse melanoma model with dietary fucose supplementation or FUK overexpression (tumor growth, CD45 and DX5 staining). Type of assay: in vivo. On the procedure:
To determine whether dietary or genetic modulation of fucosylation affects tumor growth and metastasis, we previously studied a mouse melanoma model in which tumor fucosylation was increased either by dietary supplementation (FIG. 2A) with 100 mM fucose or by overexpressing mouse FUK (FIG. 2B). […] To determine whether fucosylation affects tumor infiltration by immune cells, Immunofluorescent staining analysis of CD45 (general leukocyte marker, red) and DAPI (blue) was performed (FIG. 2C). To determine whether fucosylation affects tumor infiltration by NK cells, immunofluorescent staining analysis for DX5 (an NK cell marker, red) and DAPI (blue) was performed (FIG. 2D). Both NK cells and CD4+ T cells were elevated in samples from fucose supplemented mice.

With `C[C@H](O)[C@@H](O)[C@@H](O)[C@H](O)C=O` [L-fucose], the “suppression of tumor growth” value in assay [1] is listed as 50%. For the same compound, the NO production entry in assay [2] is “abrogated”. The “TLR profiles of dendritic cells” value in assay [3] is listed as “alters”. In addition, the “block of tumor growth and metastasis” value in assay [4] (dietary L-fucose supplementation, mouse models) was greater than 50%. Further, in assay [4] (dietary supplementation with 100 mM fucose (FIG. 2A)), the tumor suppression result was “increased tumor suppression”. In addition, the “NK cells and CD4+ T cells in tumor samples” value in assay [4] (fucose supplemented mice (FIG. 2C, 2D)) is given as “elevated”.
